Values quoted from earlier work, collected in the PKSmart pharmacokinetics tables (Seal et al. 2025).

Assays:
[1] = Lombardo et al. 2013, J Clin Pharmacol 53:178, doi 10.1177/0091270012440282; settings: for Vd / clearance: in vivo, iv; for fraction unbound: plasma
[2] = Lombardo, Berellini, Obach 2018, Drug Metab Dispos 46:1466, doi 10.1124/dmd.118.082966; settings: human; for MRT / Vd / clearance / half-life: in vivo, iv; for fraction unbound: plasma

| SMILES | MRT [2] | Vd [2] | clearance [2] | half-life [2] | fraction unbound [2] | also measured |
| --- | --- | --- | --- | --- | --- | --- |
| Cn1nnc2c(C(N)=O)ncn2c1=O | – | – | – | – | – | Vd ([1]; rat): 0.92 L/kg; clearance ([1]; rat): 9.8 mL/min/kg |
| COc1ccccc1Oc1c(NS(=O)(=O)c2ccc(C)cn2)nc(-c2ccnc(-c3nn[nH]n3)c2)nc1OCCO | – | – | – | – | – | Vd ([1]; dog): 0.11 L/kg; clearance ([1]; dog): 2.89 mL/min/kg; Vd ([1]; monkey): 0.36 L/kg; clearance ([1]; monkey): 19 mL/min/kg; Vd ([1]; rat): 0.32 L/kg; clearance ([1]; rat): 11.7 mL/min/kg |
| [H]/N=C(\N)N1CCC[C@@H](CNC(=O)CC(NS(=O)(=O)c2ccc3ccccc3c2)C(=O)N(CC(=O)O)C2CC2)C1 (some centres undefined) | – | – | – | – | – | Vd ([1]; dog): 0.64 L/kg; fraction unbound ([1]; dog): 0.52; Vd ([1]; monkey): 0.32 L/kg; Vd ([1]; rat): 0.6 L/kg; fraction unbound ([1]; rat): 0.33 |
| Nc1ccn([C@H]2CO[C@@H](CO)S2)c(=O)n1 | 6.5 h | 1.18 L/kg | 3 mL/min/kg | 19.2 h | – | – |
| CC[C@]1(O)C[C@@H]2CN(CCc3c([nH]c4ccccc34)[C@@](C(=O)OC)(c3cc4c(cc3OC)N(C=O)[C@H]3[C@@](O)(C(=O)OC)[C@H](OC(C)=O)[C@]5(CC)C=CCN6CC[C@]43[C@@H]65)C2)C1 | 20 h | 2.4 L/kg | 2 mL/min/kg | 23 h | – | – |
| NCCc1ccc(O)c(O)c1 | 0.19 h | 0.74 L/kg | 65.9 mL/min/kg | 0.42 h | 0.87 | – |
| CC(C)(C)c1cnc(CSc2cnc(NC(=O)C3CCNCC3)s2)o1 | 7.13 h | 5.14 L/kg | 13 mL/min/kg | 9.3 h | – | – |
| Oc1ccc(C2=Cc3ccc(O)cc3OC2)cc1 | 0.44 h | 1.55 L/kg | 59.1 mL/min/kg | 0.67 h | – | – |
| CCOc1ncc(S(=O)(=O)N2CCN(CC)CC2)cc1-c1nc(=O)c2nn(CCOC)c(CC)c2[nH]1 | 2.8 h | 2.4 L/kg | 14.3 mL/min/kg | 4 h | – | – |
| CC(C)OC(=O)CCC/C=C/C[C@@H]1[C@@H](CC[C@@H](O)CCc2ccccc2)[C@H](O)C[C@@H]1O | – | – | 6.7 mL/min/kg | 0.28 h | 0.1 | – |
| Nc1nc(C(=NO)C(=O)NC2C(=O)N3C(C(=O)O)=C(C=C4CCN([C@@H]5CCNC5)C4=O)CS[C@H]23)ns1 (some centres undefined) | 3 h | 0.27 L/kg | 1.5 mL/min/kg | 3.3 h | 0.62 | – |
| CCOC(=O)[C@]1(c2ccccc2)CCC=C[C@H]1N(C)C | 4.2 h | 4 L/kg | 16 mL/min/kg | 5 h | 0.21 | – |
| CC[C@@H](c1cccc(O)c1)[C@@H](C)CN(C)C | 3.62 h | 4.64 L/kg | 21.3 mL/min/kg | 2.39 h | – | – |
| C#C[C@@]1(O)[C@@H](CO)O[C@H](n2ccc(N)nc2=O)[C@@H]1O | 11.7 h | 1.1 L/kg | 1.6 mL/min/kg | 10.9 h | – | – |
| CCCCC[C@H](O)/C=C/[C@@H]1C(CCCCCCC(=O)O)C(=O)C[C@H]1O (some centres undefined) | 0.9 h | 2.4 L/kg | 45.4 mL/min/kg | 1.9 h | – | – |
| COc1ccccc1Oc1c(NS(=O)(=O)c2ccc(C(C)C)cn2)nc(-c2ccnc(-c3nnn[nH]3)c2)nc1OCCO | – | 0.28 L/kg | 8.1 mL/min/kg | 3.8 h | 0.0085 | – |
| COC(=O)N(C)c1c(N)nc(-c2nn(Cc3ccccc3F)c3ncccc23)nc1N | 10 h | 0.44 L/kg | 0.74 mL/min/kg | 9.1 h | – | – |

| SMILES | MRT [2] | Vd [2] | clearance [2] | half-life [2] | fraction unbound [2] | also measured |
| --- | --- | --- | --- | --- | --- | --- |
| N#Cc1ccc2c(c1)CN(S(=O)(=O)c1cccs1)[C@H](Cc1ccccc1)CN2Cc1cnc[nH]1 | 1.4 h | 0.84 L/kg | 9.6 mL/min/kg | 1.6 h | 0.01 | – |
| CCN(CC)CCCC(C)Nc1c2ccc(Cl)cc2nc2ccc(OC)cc12 (centres undefined) | 150 h | 45 L/kg | 5.1 mL/min/kg | 120 h | – | – |
| C[C@H]1c2cccc(O)c2C(=O)C2=C(O)[C@]3(O)C(=O)C(C(N)=O)=C(O)[C@@H](N(C)C)[C@@H]3[C@@H](O)[C@@H]21 | 25 h | 0.69 L/kg | 0.46 mL/min/kg | 14 h | – | – |
| COC(=O)C[C@@](O)(CCCC(C)(C)O)C(=O)O[C@@H]1C(OC)=C[C@]23CCCN2CCc2cc4c(cc2[C@H]13)OCO4 | 10.2 h | 1.8 L/kg | 2.96 mL/min/kg | 9.8 h | – | – |
| CN[C@H]1CN(c2ccc3c(=O)c(C(=O)O)cn(-c4nccs4)c3n2)C[C@@H]1OC | 30.6 h | 1.46 L/kg | 0.79 mL/min/kg | 25.5 h | – | – |
| CN(C)C1CCN(C(=O)c2ccc(NC(=O)Nc3ccc(-c4nc(N5CCOCC5)nc(N5CCOCC5)n4)cc3)cc2)CC1 | 17.6 h | 2.39 L/kg | 2.25 mL/min/kg | 35.8 h | – | – |
| O=C1NC(c2ccccc2)(c2ccccc2)C(=O)N1COP(=O)(O)O | 0.17 h | 0.06 L/kg | 3.5 mL/min/kg | 0.16 h | 0.05 | – |
| CCOc1nc2cccc(C(=O)O)c2n1Cc1ccc(-c2ccccc2-c2nnn[nH]2)cc1 | 5.9 h | 0.13 L/kg | 0.37 mL/min/kg | 9.7 h | 0.002 | – |
| CCOC(=O)N[C@@H]1CC[C@@H]2[C@H](CC3C(=O)O[C@H](C)[C@H]3[C@H]2/C=C/c2ccc(-c3cccc(F)c3)cn2)C1 (some centres undefined) | 183 h | 3.74 L/kg | 0.34 mL/min/kg | 149 h | 0.01 | – |
| C[C@@H](O)C1C(=O)N2C(C(=O)[O-])=C(S[C@H]3CC[S@@+](O)C3)S[C@@H]12 (some centres undefined) | 0.7 h | 0.21 L/kg | 5.1 mL/min/kg | 0.9 h | 0.9 | – |
| Cc1c(F)cc(C(=O)NC2CC2)cc1-c1ccc(C(=O)NCC(C)(C)C)cn1 | 7.38 h | 1.67 L/kg | – | 6.95 h | – | – |
| CCCC(C)(COC(N)=O)COC(N)=O | 19 h | 0.7 L/kg | 0.6 mL/min/kg | 14 h | 1 | – |
| C=CCN1CC[C@]23c4c5ccc(O)c4OC2C(=O)CC[C@@]3(O)[C@H]1C5 (some centres undefined) | 1.2 h | 1.7 L/kg | – | 1.1 h | 0.54 | – |
| CC(=O)O[C@H]1C[C@@H]2CC[C@@H]3[C@H](CC[C@@]4(C)[C@H]3C[C@H]([N+]3(C)CCCCC3)[C@@H]4OC(C)=O)[C@@]2(C)C[C@@H]1[N+]1(C)CCCCC1 | 2.2 h | 0.2 L/kg | – | 1.9 h | 0.09 | – |
| CC[C@]1(O)C[C@@H]2CN(CCc3c([nH]c4ccccc34)[C@@](C(=O)OC)(c3cc4c(cc3OC)N(C)[C@H]3[C@@](O)(C(=O)OC)[C@H](OC(C)=O)[C@]5(CC)C=CCN6CC[C@]43[C@@H]65)C2)C1 | 150 h | 28 L/kg | – | 67 h | – | – |
| CN(C)C(=N)NC(=N)N | 1.4 h | 0.64 L/kg | 7.4 mL/min/kg | 1.7 h | – | – |
